Results: patent US20110237448A1, “CARBOHYDRATE BINDING MODULE WITH AFFINITY FOR INSOLUBLE XYLAN” (The Board of Trustees of the University of Illinois, priority 2009, published 2011)
Where a chain is given by its changes, count along the chain named. Entries after “also recorded” stand apart in the source; their conditions may differ.

How the values were obtained:
[1] = molecular target: Fibrobacter succinogenes S85 FSUAxe6B truncational mutant TM5 (FPd-1 domain), SEQ ID NO: 2 (Fibrobacter succinogenes, UniProt C9RS24); assay: Isothermal titration calorimetric (ITC) analysis of TM5 (FPd-1 domain); format: binding; conditions: 25° C., 100 μM protein, 50 mM Na2HPO4—HCl buffer pH 7.0, 100 mM NaCl
Procedure: Isothermal titration calorimetric analysis was conducted to determine whether the FPd-1 domain can bind to soluble substrates. TM5 was tested for binding with arabinoxylan, xylobiose, and xylopentaose (FIG. 10). If there is binding affinity between two materials, a binding heat that follows a pattern such as that for CaCl2 vs. EDTA in the positive control will be observed.
For isothermal titration calorimetric (ITC) analysis, measurements were performed at 25° C. using a VP-ITC calorimeter (MicroCal, Inc, Northhampton, Mass.) following the manufacturer's recommended procedures. All samples were extensively dialyzed against 50 mM Na2HPO4—HCl buffer (pH 7.0), 100 mM NaCl, and all ligands were dissolved in the same buffer. The protein sample (100 μM) was injected with successive 10-μl aliquots of ligand at 300-s intervals.

[2] = molecular target: T1, Fibrobacter succinogenes S85 FSUAxe6B variant D270A (Fibrobacter succinogenes, UniProt C9RS24, D270A); assay: Steady state kinetic analysis, D270A mutant; format: biochemical; conditions: tetra-acetyl-xylopyranoside as substrate, 37° C., 2 μM D270A protein
T1 sequence (C9RS24 30-552 D270A): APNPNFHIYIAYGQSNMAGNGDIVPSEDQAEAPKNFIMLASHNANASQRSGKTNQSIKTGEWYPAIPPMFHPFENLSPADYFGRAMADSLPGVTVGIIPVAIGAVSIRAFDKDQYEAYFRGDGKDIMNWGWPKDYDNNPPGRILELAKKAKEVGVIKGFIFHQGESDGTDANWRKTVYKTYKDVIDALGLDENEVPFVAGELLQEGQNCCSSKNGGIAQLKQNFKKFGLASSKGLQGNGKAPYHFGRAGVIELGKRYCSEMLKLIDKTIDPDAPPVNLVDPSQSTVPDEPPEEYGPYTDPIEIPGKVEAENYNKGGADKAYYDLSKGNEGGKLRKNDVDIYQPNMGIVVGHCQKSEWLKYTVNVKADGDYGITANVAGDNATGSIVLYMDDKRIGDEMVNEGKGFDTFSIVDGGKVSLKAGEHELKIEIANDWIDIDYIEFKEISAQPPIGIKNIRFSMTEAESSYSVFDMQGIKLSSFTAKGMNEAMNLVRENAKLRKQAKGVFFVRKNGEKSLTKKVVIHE
Procedure: (§1) Site-directed mutagenesis—Site-directed mutagenesis was carried out using the QuikChange Multi Site-Directed Mutagenesis Kit (Stratagene), according to the manufacturer's instructions.
(§2) Enzyme assays and steady state kinetics—Acetylxylan esterase activity was assayed using tetra-acetyl-xylopyranoside (Toronto Research Chemicals Inc., Ontario, Canada) for all proteins in this study, and the released of acetic acid was measured using an acetic acid detection kit (Megazyme, Bray, Ireland) following the manufacturer's instructions. The reduction of NADH was monitored continuously at an absorbance of 340 nm using Synergy 2 Microplate reader (BioTek, Winooski, Vt.) using the path-length correction feature. All assays were carried out at 37° C. […] The concentrations of the ingredients R1 and R2 solutions were pre-determined by the manufacturer (Megazyme). […] For active-site mutants with lower activity, the kinetic parameters were determined at a concentration of 10 μM for E194N protein and 2 μM for E194A, D270N, and D270A proteins, respectively. Initial rates were plotted against the tetra-acetyl-xylopyranoside concentrations, and the kinetic parameters were determined by Michaelis-Menten equation utilizing Graph Pad Prism v5.01.

[3] = molecular target: T2, Fibrobacter succinogenes S85 FSUAxe6B truncational mutant TM2 (CE6) (Fibrobacter succinogenes, UniProt C9RS24); assay: Steady state kinetic analysis, truncational mutant TM2; format: biochemical; conditions: tetra-acetyl-xylopyranoside as substrate, 37° C., means ± standard errors
T2 construct: primers F1/R3, modified pET-28a, E. coli BL21(DE3), purified
T2 sequence (C9RS24 30-297): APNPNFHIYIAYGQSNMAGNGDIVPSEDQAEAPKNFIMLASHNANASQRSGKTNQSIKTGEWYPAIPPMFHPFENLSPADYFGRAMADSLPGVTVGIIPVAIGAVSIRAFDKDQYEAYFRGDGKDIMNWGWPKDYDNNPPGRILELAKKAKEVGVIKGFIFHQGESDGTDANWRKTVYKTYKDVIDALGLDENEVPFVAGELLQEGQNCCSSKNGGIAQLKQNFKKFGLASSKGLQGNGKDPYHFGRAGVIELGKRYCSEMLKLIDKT
Excerpt: (§3) To delineate and investigate the modules present in FSUAxe6B for functional role assignments, a gene truncation strategy was adopted. To create the truncated proteins, the glycines in loop regions were selected as the terminal amino acids of our constructs. The construct TM1 (CE6+CBM6) was designed to investigate the contribution of FPd-1 to the wild-type (WT) protein in terms of its catalytic (esterase) and carbohydrate binding activities. Likewise, TM2 (CE6) was constructed for identifying the role of the putative CBM6 on the two potential functions of the protein. […]
(§4) Assays were carried out at 37° C. […] The concentrations of the ingredients R1 and R2 solutions were pre-determined by the manufacturer (Megazyme). […] Initial rates were plotted against the tetra-acetyl-xylopyranoside concentrations, and the kinetic parameters were determined by Michaelis-Menten equation utilizing Graph Pad Prism v5.01.
(§5) Enzyme assays and steady state kinetics—Acetylxylan esterase activity was assayed using tetra-acetyl-xylopyranoside (Toronto Research Chemicals Inc., Ontario, Canada) for all proteins in this study, and the released of acetic acid was measured using an acetic acid detection kit (Megazyme, Bray, Ireland) following the manufacturer's instructions. […] The concentrations of the ingredients R1 and R2 solutions were pre-determined by the manufacturer (Megazyme). […]

[4] = molecular target: T3, Fibrobacter succinogenes S85 FSUAxe6B variant E194A (Fibrobacter succinogenes, UniProt C9RS24, E194A); assay: Steady state kinetic analysis, E194A mutant; format: biochemical; conditions: tetra-acetyl-xylopyranoside as substrate, 37° C., 2 μM E194A protein
T3 sequence (C9RS24 30-552 E194A): T1 sequence (C9RS24 30-552 D270A) with E165A, A241D
Procedure: as §1, §2

[5] = molecular target: T4, Fibrobacter succinogenes S85 FSUAxe6B variant E194N (Fibrobacter succinogenes, UniProt C9RS24, E194N); assay: Steady state kinetic analysis, E194N mutant; format: biochemical; conditions: tetra-acetyl-xylopyranoside as substrate, 37° C., 10 μM E194N protein
T4 sequence (C9RS24 30-552 E194N): T1 sequence (C9RS24 30-552 D270A) with E165N, A241D
Procedure: as §1, §2

[6] = molecular target: T5, Fibrobacter succinogenes S85 FSUAxe6B truncational mutant TM1 (CE6+CBM6) (Fibrobacter succinogenes, UniProt C9RS24); assay: Steady state kinetic analysis, truncational mutant TM1; format: biochemical; conditions: tetra-acetyl-xylopyranoside as substrate, 37° C.
T5 construct: primers F1/R2, modified pET-28a, E. coli BL21(DE3), purified
T5 sequence (C9RS24 30-479 limits assumed): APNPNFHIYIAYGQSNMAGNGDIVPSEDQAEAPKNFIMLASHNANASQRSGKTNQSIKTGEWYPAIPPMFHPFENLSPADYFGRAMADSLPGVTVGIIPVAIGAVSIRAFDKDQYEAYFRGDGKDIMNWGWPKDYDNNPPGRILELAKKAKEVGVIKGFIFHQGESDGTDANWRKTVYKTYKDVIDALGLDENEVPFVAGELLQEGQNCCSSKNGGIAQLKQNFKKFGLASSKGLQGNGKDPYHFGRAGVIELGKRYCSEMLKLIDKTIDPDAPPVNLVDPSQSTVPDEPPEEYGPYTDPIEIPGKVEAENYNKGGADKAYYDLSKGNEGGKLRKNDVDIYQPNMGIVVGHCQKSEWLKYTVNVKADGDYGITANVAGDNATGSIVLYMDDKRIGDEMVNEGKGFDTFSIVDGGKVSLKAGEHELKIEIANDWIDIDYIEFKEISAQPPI
Excerpt: as §3, §4, §5

[7] = test system: Fibrobacter succinogenes S85 acetylxylan esterase Axe6B; conditions: comparison with Axe6A; substrate not stated at the place; cited from earlier work
[8] = molecular target: T6, Fibrobacter succinogenes S85 acetylxylan esterase FSUAxe6B (Axe6B, FSU2267), wild-type (WT), SEQ ID NO: 31 (Fibrobacter succinogenes, UniProt C9RS24); assay: Steady state kinetic analysis of acetylxylan esterase activity, FSUAxe6B wild-type (WT); format: biochemical; conditions: tetra-acetyl-xylopyranoside as substrate, 37° C.
T6 sequence (C9RS24 30-552): T1 sequence (C9RS24 30-552 D270A) with A241D
Procedure: Assays were carried out at 37° C. Five microliters of 1 μM enzyme and 20 μl of R2 enzyme solution (containing acetate kinase, pyruvate kinase, and […] in 100 mM Tris-HCl, pH 7.4, 3 mM MgCl2) were thoroughly mixed. The tetra-acetyl-xylopyranoside was prepared in […] of R1 solution (NADH, ATP, phospho-enol-pyruvate, and pyruvate). The concentrations of the ingredients R1 and R2 solutions were pre-determined by the manufacturer (Megazyme). Both solutions were incubated separately at 37° C. for 3 min to allow equilibration, and then mixed to start the reaction. Initial rates were plotted against the tetra-acetyl-xylopyranoside concentrations, and the kinetic parameters were determined by Michaelis-Menten equation utilizing Graph Pad Prism v5.01.
Enzyme assays and steady state kinetics—Acetylxylan esterase activity was assayed using tetra-acetyl-xylopyranoside (Toronto Research Chemicals Inc., Ontario, Canada) for all proteins in this study, and the released of acetic acid was measured using an acetic acid detection kit (Megazyme, Bray, Ireland) following the manufacturer's instructions. The reduction of NADH was monitored continuously at an absorbance of 340 nm using Synergy 2 Microplate reader (BioTek, Winooski, Vt.) using the path-length correction feature. All assays were carried out at 37° C. […]

[9] = test system: Fibrobacter succinogenes S85 acetylxylan esterase Axe6A; conditions: from ref. 16; substrate not stated at the place; cited from earlier work

OC1OC[C@@H](O[C@@H]2OC[C@@H](O)[C@H](O)[C@H]2O)[C@H](O)[C@H]1O (some centres unmarked) [xylobiose]
ITC binding [1]: no significant peaks were observed; also recorded: does not bind

OC1OC[C@@H](O[C@@H]2OC[C@@H](O[C@@H]3OC[C@@H](O[C@@H]4OC[C@@H](O[C@@H]5OC[C@@H](O)[C@H](O)[C@H]5O)[C@H](O)[C@H]4O)[C@H](O)[C@H]3O)[C@H](O)[C@H]2O)[C@H](O)[C@H]1O (some centres unmarked) [xylopentaose]
ITC binding [1]: no significant peaks were observed; also recorded: does not bind

CC(=O)O[C@@H]1OC[C@@H](OC(C)=O)[C@H](OC(C)=O)[C@H]1OC(C)=O [tetra-acetyl-xylopyranoside]
kcat [2]: 1.8 s⁻¹
kcat/Km [2]: 9.0 s⁻¹ mM⁻¹
kcat [3]: 13 s⁻¹
kcat [4]: 2.9 s⁻¹
kcat/Km [4]: 14 s⁻¹ mM⁻¹
kcat [5]: 2.8 s⁻¹
kcat/Km [5]: 0.40 s⁻¹ mM⁻¹
kcat/Km [6]: 170 s⁻¹ mM⁻¹
Km [7]: 60 µM
kcat/Km [8]: 190 s⁻¹ mM⁻¹
kcat ([8]; means ± standard errors): 15 s⁻¹
Km [9]: 80 µM
